According to patent US20260365684A1, “PHYTOSPHINGOSINE-3,4-CYCLICPHOSPHATE COMPOUND AND PHARMACEUTICAL COMPOSITION COMPRISING THE SAME” (AXCESO BIOPHARMA CO., LTD., priority 2022, published 2026):

Tests used:
SIRT1 = SIRT1 expression in HUVECs by western blot; type: cell-based, human
Method: To determine the increase in SIRT1 expression by the compound of formula (1a-1) prepared in Example 1 above in human umbilical vein endothelial cells (HUVECs), HUVECs were seeded at 5×10^5/4 ml in a 60 mm cell culture dish using ECBM2 medium (Promocell) and stabilized for 12 hours in an incubator maintained at 37 °C and 5% CO2, respectively.
The cells were then treated with 10 nM, 100 nM and 1000 nM of the compound of formula (1a-1) prepared in Example 1 above, respectively, and incubated for another 24 hours, and then SIRT1 expression was determined by western blot.

mouse organs = test: In vivo permeability of mouse organs after CLP (Evans blue dye); conditions: treated at 6 and 16 hours after CLP, EBD i.v. at 18 hours; FIG. 11C
Method: Permeability was measured by an in vitro method using cell culture and in vivo method using Evans blue dye. To increase permeability, LPS was used in the in vitro method and CLP treatment was used in the in vivo method.
To measure permeability by an in vivo method, the compound of formula (1a-1) was treated at 6 and 16 hours after CLP treatment in the same manner as in Experimental Example 7 above, and 200 μl of a 0.5% Evans blue dye (EBD) solution was administered intravenously at 18 hours, circulated for 1 hour, and organs were harvested to visually confirm the presence of dye. The organs were then homogenized in a homogenizer to extract the dye at 55 °C for 48 hours, and permeability was determined by measuring absorbance at 620 nm.

C57BL/6 mice = test: Survival in sepsis induced by cecal ligation and puncture (CLP); type: in vivo, mouse; conditions: 100 ng/mouse (5 μg/kg) i.v. at 6 and 16 hours after CLP; FIG. 7
Method: C57BL/6 mice aged 7-8 weeks were purchased from Jabio (Suwon, Gyeonggi-do) and sepsis was induced by cecal ligation and puncture (CLP).
Specifically, after anesthesia using 150 mg/kg of ketamine and 17.5 mg/kg of rompun, an abdominal incision of 1-2 cm was made to expose the cecum to induce sepsis. The cecum was ligated with 6-0 silk sutures at the distal end of the ileocecal valve, and a puncture was made with an 18-gauge needle. The perforated cecum was gently squeezed to push out 1-2 cm of feces, and the cecum was then retracted back into the abdominal cavity. The abdomen was then closed and pre-warmed normal saline (2.5 mL/100 g body weight) was injected into the mouse abdominal cavity immediately after the procedure. 6 and 16 hours after CLP treatment, the compound of formula (1a-1) was dissolved in phosphate buffered saline (PBS) and injected intravenously at 100 ng/mouse (5 μg/kg), and survival was examined for 10 days. […] In addition, as a drug-negative control, survival was examined in mice that received only PBS after CLP treatment.
For comparison, we also examined the survival of a control group treated with fingolimod (FTY720), a known S1P modulator, instead of the compound of formula (1a-1) under the same conditions.

[1] = tested on: APP/PS/Tau transgenic mice; test: Intestinal length in an AD-induced animal model (APP/PS/Tau transgenic mice); type: in vivo, mouse; conditions: 1 mg/kg i.p. once every 3 days for 2 weeks, FIG. 2
Method: In neurodegenerative diseases (AD and PD), the length of the intestine tends to decrease as the disease progresses, so we looked for changes in intestinal length in an AD-induced animal model.
APP/PS/Tau transgenic mice were used as an AD-induced animal model. The compound of formula (1a-1) was administered intraperitoneally once every 3 days at a concentration of 1 mg/kg to 12-week-old transgenic mice for 2 weeks, and the changes in intestinal length of the mice were measured after 1 and 4 weeks.

pluripotent stem cells = test: Differentiation of pluripotent stem cells into dopaminergic neurons; type: cell-based; conditions: FIG. 5
Method: Pluripotent stem cells were seeded in Aggre Well plates (stemcell) at 5,000 cells/microwell and cultured for 5 days in E6 medium (GIBCO) to induce embryonic body (EB) formation. For neural rosette formation, EBs were seeded into 35 mm dishes in groups of 30 and cultured for 10 days in N2bF medium. The 35 mm dishes were used after being coated with 15 μg/ml of poly-L-ornithine (sigma) and 1 μg/ml of fibronectin (sigma). The N2Bf medium composition was DMEM/F12 (GIBCO), N2 supplement (stemcell) 1×, 10% NEAA (GIBCO), 55 µM beta-Mercaptoethanol (GIBCO), bFGF (peprotech) 20 ng/ml. For the formation of spherical neural masses (SNMs), rosette masses were sliced and cultured in petri dishes with N2bF medium. SNMs were no larger than 500 UM in size and were sliced and cultured for 3 to 4 passages. After subculture of SNM, the clumps were broken into small pieces using a tungsten mesh (Nilaco) for the neural progenitor cell (NPC) culture step, and then attached to a PLO/FN-coated dish and cultured in N2bF medium. […]
The effect of the compound of formula (1a-1) on differentiation into neurons was evaluated by comparing the expression of tyrosine hydroxylase (TH) and dopamine transporter (DAT) depending on the presence or absence of treatment with the compound of formula (1a-1).

TNF-α = TNF-α in serum after CLP treatment by ELISA; type: in vivo, mouse; conditions: serum at 18 hours, treated at 6 and 16 hours after CLP; FIG. 10
Method: After CLP treatment, the inflammatory cytokines TNF-α and IL-6 were analyzed by ELISA.
Specifically, after treating the compound of formula (1a-1) at 6 and 16 hours after CLP treatment, mouse blood was collected at 18 hours and allowed to stand at room temperature for 1 hour, then centrifuged at 3000 rpm for 10 minutes to obtain serum to analyze the amount of TNF-α and IL-6.

CCCCCCCCCCCCCC[C@H]1OP(=O)(O)O[C@H]1[C@@H](N)CO.Cl [formula (1a-1), (4S,5R)-4-((S)-1-amino-2-hydroxyethyl)-2-hydroxy-5-tetradecyl-1,3,2-dioxaphosphoran-2-oxide hydrochloride]
concentration increasing SIRT1 expression relative to that of resveratrol (SIRT1; HUVEC EC50 about 10 nM vs known EC50 of resveratrol approximately […] μM): thousands of times lower than that of resveratrol | increase in SIRT1 expression (SIRT1; HUVECs, 10 nM, 100 nM and 1000 nM, 24 hours, FIG. 1): increases the expression of SIRT1 even at a very low concentration of 10 nM | EC50 (SIRT1; Homo sapiens, HUVEC, HUVECs, 24 hours, western blot, read-out: concentration (EC50) that increased the expression of SIRT1 by 50%): ~10 nM | amount of Evans blue dye (EBD) in each organ (mouse organs): returns to normal | deaths after 10 days (C57BL/6 mice): no deaths | survival for 10 days (C57BL/6 mice): more than 80% | intestinal length at 4 weeks (6W) vs 1 week (3W) after administration [1]: the length of the intestine at 4 weeks is longer compared to the length of the intestine at 1 week | intestinal length vs control group ([1]; untreated AD-induced mice as control): the intestinal length is increased | differentiation of pluripotent stem cells into dopaminergic neurons (pluripotent stem cells): can promote the differentiation of pluripotent stem cells into dopaminergic neurons | amount of TNF-α (TNF-α): significantly decreased
